# In ChEMBL document CHEMBL5107949, “Design, synthesis, and antibacterial activity of N-(trifluoromethyl)phenyl substituted pyrazole derivatives” (RSC Med Chem, 2021):
# Calls of active or inactive are those of the source. No cut-off for these calls is given here.
# Legend:
# Staphylococcus aureus [1] = assay: Inhibition of DNA synthesis in Staphylococcus aureus ATCC 29213 at 8 times MIC preincubated for 30 mins followed by [3H]-thymidine and measured after 30 mins by [3H]-thymidine incorporation based beta scintillation counter analysis; type: functional; settings: time 60 min; 1 h
# Staphylococcus aureus [2] = assay: Bactericidal activity against Staphylococcus aureus ATCC 700699 assessed as bacteria elimination at 4 times MIC and measured after 10 hrs by time-kill assay; type: functional, organism-based
# Enterococcus faecalis [3] = assay: Anti-biofilm activity against Enterococcus faecalis ATCC 29212 assessed as minimum bactericidal concentration incubated for 24 hrs by Calgary biofilm device assay; settings: ATCC 29212, 24 h
# Enterococcus faecalis [4] = assay: Antibacterial activity against Enterococcus faecalis clinical isolate 1091563 assessed as inhibition of bacterial growth by CLSI protocol based broth microdilution method; type: functional
# Staphylococcus aureus [5] = assay: Anti-biofilm activity against Staphylococcus aureus ATCC 25923 assessed as eradication of biofilm formation incubated for 24 hrs by Calgary biofilm device assay; type: functional
# Staphylococcus aureus [6] = assay: Antibacterial activity against antibiotic resistant Staphylococcus aureus BAA-2312 assessed as inhibition of bacterial growth by CLSI protocol based broth microdilution method; type: functional
# Enterococcus faecalis [7] = assay: Anti-biofilm activity against Enterococcus faecalis ATCC 29212 assessed as eradication of biofilm formation incubated for 24 hrs by Calgary biofilm device assay; type: functional
# Enterococcus faecium [8] = assay: Antibacterial activity against Enterococcus faecium clinical isolate 1091282 assessed as inhibition of bacterial growth by CLSI protocol based broth microdilution method; type: functional
# [9] = system: Staphylococcus epidermidis; assay: Antibacterial activity against antibiotic resistant Staphylococcus epidermidis ATCC 700296 assessed as inhibition of bacterial growth by CLSI protocol based broth microdilution method; type: functional
# Enterococcus faecium [10] = assay: Antibacterial activity against Enterococcus faecium clinical isolate 1088925 assessed as inhibition of bacterial growth by CLSI protocol based broth microdilution method; type: functional
# Enterococcus faecalis [11] = assay: Antibacterial activity against Enterococcus faecalis clinical isolate 1094112 assessed as inhibition of bacterial growth by CLSI protocol based broth microdilution method; type: functional
# Staphylococcus aureus [12] = assay: Antibacterial activity against antibiotic susceptible Staphylococcus aureus ATCC 25923 assessed as inhibition of bacterial growth by CLSI protocol based broth microdilution method; type: functional
# Bacillus subtilis = assay: Antibacterial activity against antibiotic resistant Bacillus subtilis ATCC 6623 assessed as inhibition of bacterial growth by CLSI protocol based broth microdilution method; type: functional
# Enterococcus faecalis [13] = assay: Antibacterial activity against Enterococcus faecalis clinical isolate 1088051 assessed as inhibition of bacterial growth by CLSI protocol based broth microdilution method; type: functional
# Enterococcus faecium [14] = assay: Antibacterial activity against Enterococcus faecium clinical isolate 1089544 assessed as inhibition of bacterial growth by CLSI protocol based broth microdilution method; type: functional
# Enterococcus faecalis [15] = assay: Antibacterial activity against antibiotic susceptible Enterococcus faecalis ATCC 29212 assessed as inhibition of bacterial growth by CLSI protocol based broth microdilution method; type: functional
# Enterococcus faecalis [16] = assay: Antibacterial activity against Enterococcus faecalis clinical isolate 1100440 assessed as inhibition of bacterial growth by CLSI protocol based broth microdilution method; type: functional
# Staphylococcus aureus [17] = assay: Antibacterial activity against antibiotic resistant Staphylococcus aureus ATCC 700699 assessed as inhibition of bacterial growth by CLSI protocol based broth microdilution method; type: functional
# Staphylococcus aureus [18] = assay: Antibacterial activity against Staphylococcus aureus ATCC 25923 assessed as minimum bactericidal concentration incubated for 24 hrs by Calgary biofilm device assay; settings: ATCC 25923, 24 h
# Enterococcus faecalis [19] = assay: Antibacterial activity against Enterococcus faecalis clinical isolate 1091720 assessed as inhibition of bacterial growth by CLSI protocol based broth microdilution method; type: functional
# Enterococcus faecium [20] = assay: Antibacterial activity against Enterococcus faecium clinical isolate 1088228 assessed as inhibition of bacterial growth by CLSI protocol based broth microdilution method; type: functional
# Enterococcus faecium [21] = assay: Antibacterial activity against Enterococcus faecium clinical isolate 1088168 assessed as inhibition of bacterial growth by CLSI protocol based broth microdilution method; type: functional
# Enterococcus faecium [22] = assay: Antibacterial activity against vancomycin resistant Enterococcus faecium ATCC 700221 assessed as inhibition of bacterial growth by CLSI protocol based broth microdilution method; type: functional
# Staphylococcus aureus [23] = assay: Inhibition of lipid synthesis in Staphylococcus aureus ATCC 29213 at 8 times MIC preincubated for 30 mins followed by [3H]-glycerol and measured after 50 mins by [3H]-glycerol incorporation based beta scintillation counter analysis; type: functional; settings: time 80 min; 1.333 h
# Staphylococcus aureus [24] = assay: Bactericidal activity against Staphylococcus aureus ATCC 700699 assessed as bacteria elimination at 4 times MIC and measured after 6 hrs by time-kill assay; type: functional
# Staphylococcus aureus [25] = assay: Bactericidal activity against Staphylococcus aureus ATCC 700699 persisters assessed as log reduction in colony forming unit at 64 times MIC after 4 hrs by colony counting method; type: functional, organism-based
# HEK293 = assay: Cytotoxicity against human HEK293 cells reduction in cell viability at 74 ug/ml incubated for 24 hrs by resazurin cell viability assay; type: toxicity, cell-based; settings: hek293, 24 h, at 74 µg/mL
# Staphylococcus aureus [26] = assay: Inhibition of biofilm formation in Staphylococcus aureus ATCC 25923 at 3.125 to 12.5 ug/ml incubated for 24 hrs by Calgary biofilm device assay; type: functional, organism-based; settings: dose 3.125-12.5 µg/ml, DDE = dose-dependent effect
# Staphylococcus aureus [27] = assay: Bactericidal activity against Staphylococcus aureus ATCC 700699 persisters assessed as log reduction in colony forming unit at 2 to 32 times MIC measured for 4 hrs by time kill assay; type: functional, organism-based; settings: DDE = dose-dependent effect
# Enterococcus faecalis [28] = assay: Anti-biofilm activity against Enterococcus faecalis ATCC 29212 assessed as biofilm eradication at 3.125 to 12.5 ug/ml incubated for 24 hrs by Calgary biofilm device assay; type: functional, organism-based; settings: dose 3.125-12.5 µg/ml
# Staphylococcus aureus [29] = assay: Antibacterial activity against antibiotic resistant Staphylococcus aureus ATCC 33591 assessed as inhibition of bacterial growth by CLSI protocol based broth microdilution method; type: functional
# Staphylococcus aureus [30] = assay: Antibacterial activity against antibiotic resistant Staphylococcus aureus ATCC 33592 assessed as inhibition of bacterial growth by CLSI protocol based broth microdilution method; type: functional
# [31] = Cytotoxicity against human HEK293 cells reduction in cell viability incubated for 24 hrs by resazurin cell viability assay; type: toxicity, cell-based
# Staphylococcus aureus [32] = assay: Bactericidal activity against Staphylococcus aureus ATCC 700699 persisters assessed as log reduction in colony forming unit at 16 times MIC after 4 hrs by colony counting method; type: functional
# Enterococcus faecalis [33] = assay: Inhibition of biofilm formation in Enterococcus faecalis ATCC 29212 at 12.5 ug/ml incubated for 24 hrs by Calgary biofilm device assay; type: functional
# Staphylococcus aureus [34] = assay: Bactericidal activity against Staphylococcus aureus ATCC 700699 persisters assessed as log reduction in colony forming unit at 32 times MIC measured for 4 hrs by time kill assay; type: functional
# Staphylococcus aureus [35] = assay: Bactericidal activity against Staphylococcus aureus ATCC 700699 persisters assessed as log reduction in colony forming unit at 16 times MIC measured for 4 hrs by time kill assay; type: functional
# Staphylococcus aureus [36] = assay: Inhibition of protein synthesis in Staphylococcus aureus ATCC 29213 at 8 times MIC preincubated for 30 mins followed by [3H]-leucine and measured after 40 mins by [3H]-leucine incorporation based beta scintillation counter analysis; type: functional; settings: time 70.0 min
# Staphylococcus aureus [37] = assay: Inhibition of RNA synthesis in Staphylococcus aureus ATCC 29213 at 8 times MIC preincubated for 30 mins followed by [3H]-uridine and measured after 30 mins by [3H]-uridine incorporation based beta scintillation counter analysis; type: functional; settings: time 60 min; 1 h
# Staphylococcus aureus [38] = assay: Inhibition of biofilm formation in Staphylococcus aureus ATCC 25923 at 12.5 ug/ml incubated for 24 hrs by Calgary biofilm device assay; type: functional
# Enterococcus faecalis [39] = assay: Inhibition of biofilm formation in Enterococcus faecalis ATCC 29212 at 6.25 ug/ml incubated for 24 hrs by Calgary biofilm device assay; type: functional; settings: dose 6.25 µg/ml
compound,measurement,setting,value
O=C(O)c1cn(C2CC2)c2cc(N3CCNCC3)c(F)cc2c1=O [CIPROFLOXACIN],inhibition (INH),Staphylococcus aureus [1],86.2%
CN[C@H](CC(C)C)C(=O)N[C@H]1C(=O)N[C@@H](CC(N)=O)C(=O)N[C@H]2C(=O)N[C@H]3C(=O)N[C@H](C(=O)N[C@H](C(=O)O)c4cc(O)cc(O)c4-c4cc3ccc4O)[C@H](O)c3ccc(c(Cl)c3)Oc3cc2cc(c3O[C@@H]2O[C@H](CO)[C@@H](O)[C@H](O)[C@H]2O[C@H]2C[C@](C)(N)[C@H](O)[C@H](C)O2)Oc2ccc(cc2Cl)[C@H]1O [VANCOMYCIN],Activity,Staphylococcus aureus [2],Active
same,MBC,Enterococcus faecalis [3],25 µg/mL
same,MIC,Enterococcus faecalis [4],> 32 µg/mL
same,MBEC,"Staphylococcus aureus [5]; Staphylococcus aureus, ATCC 25923",> 50 µg/mL
same,MIC,Staphylococcus aureus [6],0.78 µg/mL
same,MBEC,Enterococcus faecalis [7],>50 µg/mL
same,MIC,Enterococcus faecium [8],> 32 µg/mL
same,MIC,[9],3.12 µg/mL
same,MIC,Enterococcus faecium [10],> 32 µg/mL
same,MIC,Enterococcus faecalis [11],> 32 µg/mL
same,MIC,Staphylococcus aureus [12],0.78 µg/mL
same,MIC,Bacillus subtilis,0.39 µg/mL
same,MIC,Enterococcus faecalis [13],> 32 µg/mL
same,MIC,Enterococcus faecium [14],> 32 µg/mL
same,MIC,Enterococcus faecalis [15],3.12 µg/mL
same,MIC,Enterococcus faecalis [16],> 32 µg/mL
same,MIC,Staphylococcus aureus [17],3.12 µg/mL
same,MBC,Staphylococcus aureus [18],6.25 µg/mL
same,MIC,Enterococcus faecalis [19],> 32 µg/mL
same,MIC,Enterococcus faecium [20],> 32 µg/mL
same,MIC,Enterococcus faecium [21],> 32 µg/mL
same,MIC,Enterococcus faecium [22],> 50 µg/mL
C/C=C/C/C=C/CCC(=O)[C@H]1O[C@H]1C(N)=O [CERULENIN],inhibition (INH),Staphylococcus aureus [23],71.9%
GENTAMICIN,Activity,Staphylococcus aureus [24],> 99.9%
same,log(activity),Staphylococcus aureus [25],1
CC/C(=C(\c1ccccc1)c1ccc(OCCN(C)C)cc1)c1ccccc1 [TAMOXIFEN],Activity,HEK293,100%
O=C(O)c1ccc(-c2nn(-c3ccc(C(F)(F)F)cc3)cc2CNc2ccc(Oc3ccccc3)cc2)cc1,MBC,Enterococcus faecalis [3],12.5 µg/mL
same,inhibition,Staphylococcus aureus [26],Dde
same,Activity,Staphylococcus aureus [27],Dde
same,MBEC,Staphylococcus aureus [5],6.25 µg/mL
same,Activity,Staphylococcus aureus [24],>99.9%
same,MIC,Staphylococcus aureus [6],3.12 µg/mL
same,Activity,Enterococcus faecalis [28],Active
same,MIC,Staphylococcus aureus [29],3.12 µg/mL
same,MBEC,Enterococcus faecalis [7],12.5 µg/mL
same,MIC,Staphylococcus aureus [30],1.56 µg/mL
same,MIC,[9],3.12 µg/mL
same,IC50 at 24 h,[31],23.5 µg/mL
same,MIC,Staphylococcus aureus [12],1.56 µg/mL
same,MIC,Bacillus subtilis,1.56 µg/mL
same,log(activity),Staphylococcus aureus [32],>2
same,inhibition at 12.5 µg/mL,Enterococcus faecalis [33],100%
same,MIC,Enterococcus faecalis [15],3.12 µg/mL
same,log(activity),Staphylococcus aureus [34],3
same,MIC,Staphylococcus aureus [17],1.56 µg/mL
same,MBC,Staphylococcus aureus [18],3.12 µg/mL
same,MIC,Enterococcus faecium [22],1.56 µg/mL
same,log(activity),Staphylococcus aureus [35],3
CC(=O)NC[C@H]1CN(c2ccc(N3CCOCC3)c(F)c2)C(=O)O1,inhibition,Staphylococcus aureus [36],70.7%
CO[C@H]1/C=C/O[C@@]2(C)Oc3c(C)c(O)c4c(O)c(c(/C=N/N5CCN(C)CC5)c(O)c4c3C2=O)NC(=O)/C(C)=C\C=C\[C@H](C)[C@H](O)[C@@H](C)[C@@H](O)[C@@H](C)[C@H](OC(C)=O)[C@@H]1C [RIFAMPIN],inhibition (INH),Staphylococcus aureus [37],76.3%
Cc1cc(NCc2cn(-c3ccc(C(F)(F)F)cc3)nc2-c2ccc(C(=O)O)cc2)ccc1Br,MBC,Enterococcus faecalis [3],12.5 µg/mL
same,inhibition,Staphylococcus aureus [26],Dde
same,inhibition at 12.5 µg/mL,Staphylococcus aureus [38],> 90%
same,inhibition,Enterococcus faecalis [39],Active
same,MBEC,Staphylococcus aureus [5],12.5 µg/mL
same,Activity,Staphylococcus aureus [24],>99.9%
same,MIC,Staphylococcus aureus [6],3.12 µg/mL
same,Activity,Enterococcus faecalis [28],Active
same,MIC,Staphylococcus aureus [29],6.25 µg/mL
same,MBEC,Enterococcus faecalis [7],25 µg/mL
same,MIC,Staphylococcus aureus [30],3.12 µg/mL
same,MIC,[9],12.5 µg/mL
same,IC50 at 24 h,[31],> 12 µg/mL
same,MIC,Staphylococcus aureus [12],3.12 µg/mL
same,MIC,Bacillus subtilis,1.56 µg/mL
same,log(activity),Staphylococcus aureus [32],>2
same,inhibition,Enterococcus faecalis [33]; dose 12.5 µg/ml,Active
same,MIC,Enterococcus faecalis [15],6.25 µg/mL
same,MIC,Staphylococcus aureus [17],1.56 µg/mL
same,MBC,Staphylococcus aureus [18],12.5 µg/mL
same,MIC,Enterococcus faecium [22],3.12 µg/mL
